This note sets out measurements from US10508109B2 (priority 2015, dated 2019).

Where a name gives a salt, the structure may show the parent alone. Read-outs that look alike come from different tables or passages of the source.

Test [1] has as its system PC14. The test is described as follows: Cell-based assay, anti-proliferative activity (Cell Counting Kit-8, 72 hours). The settings on record: Homo sapiens, read-out: IC50 (μM) PC14. In short, it runs like this:
(§1)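 CCK-8 viability read 72 h after compound exposure over an 8-point series from 1.5625 to 100 micro-M plus zero. Seeding density 2,000–3,000 cells/well; IC50 from the dilution series.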
In general terms: Tetrazolium dyes change colour on reduction, which living cells bring about.

For test [2], the system named is HCT-116. The test is described as above. As to conditions: Homo sapiens, read-out: IC50 (μM) HCT-116. In short, it runs like this: as §1
Test [3] relates to HFL1. The description is as above. As to conditions: Homo sapiens, read-out: IC50 (μM) HFL1. A digest of the protocol: as §1
Test [4] has as its system CCD-18Co. The test is described as above. The settings on record: Homo sapiens, read-out: IC50 (μM) CCD-18Co. In short, it runs like this: as §1
Test [5] concerns the target SUV39H2 (Homo sapiens (Human), UniProt Q9H5I1). The settings on record: read-out: IC50 (μM) Suv 39H2 assay; enzyme assay.
In test [6] the test system is A549. The test is described as follows: Cell-based assay, anti-proliferative activity (Cell Counting Kit-8, 72 hours). As to conditions: Homo sapiens, read-out: IC50 (μM) A549. A digest of the protocol:
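Growth read-out after inhibitor treatment of plated cells; potency expressed as IC50.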

Where [7] appears, read: PC-14, PC14 cells, 72 hours, Cell Counting Kit-8.
The mark [8] stands for this setting: HCT-116 cells, 72 hours, Cell Counting Kit-8.
Where [9] appears, read: HFL1 cells, 72 hours, Cell Counting Kit-8.
Setting [10] is: CCD-18Co cells, 72 hours, Cell Counting Kit-8.
[11] abbreviates: A549 cells, 72 hours, Cell Counting Kit-8.
The mark [12] stands for this setting: PC-14, PC14 cells, Cell Counting Kit-8, 72 hours.
The mark [13] stands for this setting: HCT-116 cells, Cell Counting Kit-8, 72 hours.
Where [14] appears, read: HFL1 cells, Cell Counting Kit-8, 72 hours.
Where [15] appears, read: CCD-18Co cells, Cell Counting Kit-8, 72 hours.
[16] abbreviates: A549 cells, Cell Counting Kit-8, 72 hours.

SUV39H2, sequence (Q9H5I1 whole entry): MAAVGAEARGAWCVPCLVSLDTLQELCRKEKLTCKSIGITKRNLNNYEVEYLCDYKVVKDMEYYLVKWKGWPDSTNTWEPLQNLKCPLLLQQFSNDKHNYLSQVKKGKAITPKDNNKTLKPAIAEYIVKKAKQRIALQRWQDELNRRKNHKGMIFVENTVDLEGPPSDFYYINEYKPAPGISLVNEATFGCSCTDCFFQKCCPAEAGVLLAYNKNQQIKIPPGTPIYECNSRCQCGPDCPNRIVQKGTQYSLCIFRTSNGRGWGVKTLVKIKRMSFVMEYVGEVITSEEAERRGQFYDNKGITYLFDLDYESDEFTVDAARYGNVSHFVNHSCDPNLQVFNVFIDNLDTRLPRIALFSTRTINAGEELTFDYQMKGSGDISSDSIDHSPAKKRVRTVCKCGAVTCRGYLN

`COc1cc(OC)c(-c2cn3ccc(N4CCCC4)cc3n2)cc1C#N` [Example 49, 2,4-dimethoxy-5-[7-(pyrrolidin-1-yl)imidazo[1,2-a]pyridin-2-yl]benzonitrile]: the IC50 (commonly the concentration that gives 50% inhibition) in test [1] (PC-14, 72 h) stood at 1.3 µM; in test [2] (HCT-116, 72 h), 1.3 µM; in test [3] (HFL1, 72 h), 0.8 µM; in test [4] (CCD-18Co, 72 h), 1.1 µM; in test [5] it was 0.00371 µM; in test [6] (A549, 72 h), 1.5 µM.

In the case of `COc1cc(OC)c(-c2cn3ccc(-c4ccc(C(=O)NCC(O)CN)cc4)cc3n2)cc1Cl` (stereo not drawn) [Example 256, N-(3-amino-2-hydroxypropyl)-4-(2-(5-chloro-2,4-dimethoxyphenyl)-imidazo[1,2-a]pyridin-7-yl)benzamide], the IC50 in test [1] (setting [7]) is 10 µM; in test [2] (setting [8]) it was 10 µM; in test [3] (setting [9]) it was 10 µM; in test [4] (setting [10]) it was 10 µM; in test [5] it was 0.0217 µM; in test [6] (setting [11]), 10 µM.

`COc1cc(OC)c(-c2cn3ccc(N4CCCN(S(=O)(=O)N(C)C)CC4)cc3n2)cc1Cl` [Example 200, 4-[2-(5-chloro-2,4-dimethoxyphenyl)imidazo[1,2-a]pyridin-7-yl]-N,N-dimethyl-1,4-diazepane-1-sulfonamide]: the IC50 in test [1] (setting [12]) was 1.3 µM; in test [2] (setting [13]) it was 2 µM; in test [3] (setting [14]) it was 1.7 µM; in test [4] (setting [15]), 3 µM; in test [5] it was 0.00674 µM; in test [6] (setting [16]), 1.6 µM.

For the molecule `COc1cc(OC)c(-c2cn3ccc(-c4ccc(C(=O)NCCNCCNC(=O)OC(C)(C)C)cc4)cc3n2)cc1Cl` [Example 269, tert-butyl (2-((2-(4-(2-(5-chloro-2,4-dimethoxyphenyl)imidazo[1,2-a]pyridin-7-yl)benzamido)ethyl)amino)ethyl)carbamate], the IC50 in test [1] (setting [7]) is 0.94 µM; in test [2] (setting [8]) it was 0.75 µM; in test [3] (setting [9]), 1.3 µM; in test [4] (setting [10]) it was 0.87 µM; in test [5], 0.0408 µM; in test [6] (setting [11]) it was 1.2 µM.

As to `CCc1cc(OC)c(Cl)cc1-c1cn2ccc(N3CCN(S(=O)(=O)C4CC4)CC3)cc2n1` [Example 261, 2-(5-chloro-2-ethyl-4-methoxyphenyl)-7-(4-(cyclopropylsulfonyl)piperazin-1-yl)imidazo[1,2-a]pyridine], the IC50 in test [1] (setting [7]) worked out at 0.059 µM; in test [2] (setting [8]) it was 0.18 µM; in test [3] (setting [9]), 0.18 µM; in test [4] (setting [10]), 0.36 µM; in test [5], 0.0966 µM; in test [6] (setting [11]), 0.12 µM.

With `COc1cc(OC)c(-c2cn3ccc(NC(=O)[C@@H](N)Cc4c[nH]c5ccccc45)cc3n2)cc1Cl` [Example 250, (S)-2-amino-N-(2-(5-chloro-2,4-dimethoxyphenyl)imidazo[1,2-a]pyridin-7-yl)-3-(1H-indol-3-yl)propanamide], the half-inhibitory concentration (IC50) was found to be 4.2 µM in test [1] (PC-14, 72 h); 6.9 µM in test [2] (HCT-116, 72 h); 3.6 µM in test [3] (HFL1, 72 h); 4 µM in test [4] (CCD-18Co, 72 h); 0.0427 µM in test [5]; 6.6 µM in test [6] (A549, 72 h).

Turning to `COc1cc(OC)c(-c2cn3ccc(N4CC[C@H](NCc5ccccn5)C4)cc3n2)cc1Cl` [Example 299, (S)-1-(2-(5-chloro-2,4-dimethoxyphenyl)imidazo[1,2-a]pyridin-7-yl)-N-(pyridin-2-ylmethyl)pyrrolidin-3-amine], the IC50 in test [1] (setting [7]) came to 3.5 µM; in test [2] (setting [8]) it was 4.5 µM; in test [3] (setting [9]) it was 6.2 µM; in test [4] (setting [10]), 5.5 µM; in test [5] it was 0.00721 µM; in test [6] (setting [11]), 5.3 µM.

As to `CCS(=O)(=O)N1CCCN(c2ccn3cc(-c4cc(Cl)c(OC)cc4OC)nc3c2)CC1` [Example 206, 2-(5-chloro-2,4-dimethoxyphenyl)-7-[4-(ethylsulfonyl)-1,4-diazepan-1-yl]imidazo[1,2-a]pyridine], the half-inhibitory concentration (IC50) in test [1] (setting [12]) worked out at 1.6 µM; in test [2] (setting [13]) it was 3.3 µM; in test [3] (setting [14]), 2.3 µM; in test [4] (setting [15]) it was 2.9 µM; in test [5], 0.00561 µM; in test [6] (setting [16]) it was 2.6 µM.

With `CCS(=O)(=O)N1CCN(c2ccn3cc(-c4cc(Cl)c(OC)cc4OCCCN(C)C)nc3c2)CC1` [Example 199, 3-(4-chloro-2-(7-(4-(ethylsulfonyl)piperazin-1-yl)imidazo[1,2-a]pyridin-2-yl)-5-methoxyphenoxy)-N,N-dimethylpropan-1-amine], the IC50 was 3 µM in test [1] (setting [12]); 6.4 µM in test [2] (setting [13]); 4.8 µM in test [3] (setting [14]); 3.9 µM in test [4] (setting [15]); 0.0168 µM in test [5]; 5.2 µM in test [6] (setting [16]).

With `COc1cc(OC)c(-c2cn3cc(NCCN)c(N4CCN(S(=O)(=O)C5CC5)CC4)nc3n2)cc1Cl` [Example 222, N^1-(2-(5-chloro-2,4-dimethoxyphenyl)-7-(4-(cyclopropylsulfonyl)-piperazin-1-yl)imidazo[1,2-a]pyrimidin-6-yl)ethane-1,2-diamine], the concentration for half-maximal inhibition (IC50) is 10 µM in test [1] (setting [7]); 10 µM in test [2] (setting [8]); 10 µM in test [3] (setting [9]); 10 µM in test [4] (setting [10]); 0.00597 µM in test [5]; 10 µM in test [6] (setting [11]).

Turning to `COc1cc(OC)c(-c2cn3ccc(N(C)C)cc3n2)cc1Cl` [Example 22, 2-(5-chloro-2,4-dimethoxyphenyl)-N,N-dimethylimidazo[1,2-a]pyridin-7-amine hydrobromide], the IC50 in test [1] (setting [12]) was 1.6 µM; in test [2] (setting [13]) it was 3.3 µM; in test [3] (setting [14]) it was 1.7 µM; in test [4] (setting [15]), 3.6 µM; in test [5] it was 0.00515 µM; in test [6] (setting [16]), 1.6 µM.

Consider `COc1cc(OC)c(-c2cn3cc(NCCN)c(N4CCOCC4)c(F)c3n2)cc1Cl` [Example 208, N^1-(2-(5-chloro-2,4-dimethoxyphenyl)-8-fluoro-7-morpholinoimidazo-[1,2-a]pyridine-6-yl)ethane-1,2-diamine], for which the 50% inhibitory concentration (IC50) is 8.4 µM in test [1] (setting [12]); 10 µM in test [2] (setting [13]); 8.4 µM in test [3] (setting [14]); 5.9 µM in test [4] (setting [15]); 0.0291 µM in test [5]; 10 µM in test [6] (setting [16]).

`CCS(=O)(=O)NC1CCN(c2ccn3cc(-c4cc(Cl)c(OC)cc4OC)nc3c2)CC1` [Example 173, N-{1-[2-(5-chloro-2,4-dimethoxyphenyl)imidazo[1,2-a]pyridin-7-yl]piperidin-4-yl}ethanesulfonamide]: the IC50 was determined as 1.6 µM in test [1] (setting [12]); 1.9 µM in test [2] (setting [13]); 0.53 µM in test [3] (setting [14]); 0.99 µM in test [4] (setting [15]); 0.00961 µM in test [5]; 1.5 µM in test [6] (setting [16]).

Take `COc1cc(OC)c(-c2cn3ccc(N4CCN(C(=O)OC(C)(C)C)CC4)cc3n2)cc1Cl` [Example 232, tert-butyl 4-[2-(5-chloro-2,4-dimethoxyphenyl)imidazo[1,2-a]pyridin-7-yl]piperazine-1-carboxylate]: the IC50 in test [1] (setting [7]) worked out at 0.73 µM; in test [2] (setting [8]), 1.7 µM; in test [3] (setting [9]) it was 1.1 µM; in test [4] (setting [10]), 1.5 µM; in test [5] it was 0.0291 µM; in test [6] (setting [11]), 1.5 µM.

Regarding `COc1cc(C)c(-c2cn3ccc(N4CCN(S(=O)(=O)C5CC5)C(COCCN(C)C)C4)cc3n2)cc1Cl` (stereo not drawn) [Example 264, 2-((4-(2-(5-chloro-4-methoxy-2-methylphenyl)imidazo[1,2-a]pyridin-7-yl)-1-(cyclopropylsulfonyl)piperazin-2-yl)methoxy)-N,N-dimethylethanamine], the IC50 in test [1] (setting [7]) was found to be 4.5 µM; in test [2] (setting [8]) it was 8.5 µM; in test [3] (setting [9]), 4.7 µM; in test [4] (setting [10]), 5 µM; in test [5], 0.07 µM; in test [6] (setting [11]), 5.6 µM.

Take `COc1cc(OC)c(-c2cn3ccc(N4CCCNCC4)cc3n2)cc1Cl` [Example 189, 2-(5-chloro-2,4-dimethoxyphenyl)-7-(1,4-diazepan-1-yl)imidazo[1,2-a]pyridine]: the IC50 in test [1] (setting [12]) was found to be 2.9 µM; in test [2] (setting [13]), 3 µM; in test [3] (setting [14]) it was 2 µM; in test [4] (setting [15]), 6.3 µM; in test [5], 0.00433 µM; in test [6] (setting [16]), 3.5 µM.

Turning to `COc1cc(OC)c(-c2cn3ccc(N4CCN(c5ccccn5)CC4)cc3n2)cc1Cl` [Example 276, 2-(5-chloro-2,4-dimethoxyphenyl)-7-(4-(pyridin-2-yl)piperazin-1-yl)-imidazo[1,2-a]pyridine], the IC50 was 1.2 µM in test [1] (setting [7]); 0.71 µM in test [2] (setting [8]); 0.69 µM in test [3] (setting [9]); 1.1 µM in test [4] (setting [10]); 0.00774 µM in test [5]; 1.2 µM in test [6] (setting [11]).
